In article PMC5958064, “Single cell analysis of kynurenine and System L amino acid transport in T cells” (Nature Communications, 2018):
Read-outs that look alike come from different tables or passages of the source.

Columns and labels:
[1] = target: T1, System L transporter SLC7A5 (Mus musculus, UniProt Q9Z127); experiment: Radiolabelled 3H-kynurenine uptake in T cells; format: cell-based
T1 construct: endogenous in cells
Protocol: To activate primary T cells, spleens and/or lymph nodes (LN) were removed, disaggregated and red blood cells lysed. Cells were stimulated with 1 μg/ml of the CD3 monoclonal antibody (2C11) and 2 μg/ml anti-CD28 (37.51; ebiosciences) to trigger the TCR. Naive CD4^+ T cells and 24 h TCR-activated CD4^+ T cells were purified using CD4 isolation kit (EasySep, STEMCELL Technologies). […] Proleukin, Novartis) for a further 3-5 days. To generate TH1s and TH17s, murine CD8^+ T cells were depleted from lymph node preparations using CD8 depletion kit (EasySep, STEMCELL Technologies). […] RnD Systems) and IL-2 (20 ng/ml) and for TH17s; cytokines IL-6 (50 ng/ml, Peprotech), IL-1β (10 ng/ml, Peprotech) and TGFβ (2 ng/ml, Peprotech). TH17s were cultured in IMDM (Gibco). All other cells were cultured in RPMI 1640 containing L-glutamine (Gibco). Culture media was supplemented with 10% FBS (Gibco), 50 μM β-mercaptoethanol (β-ME, Sigma) and penicillin/streptomycin (Gibco). Cells were incubated at 37 °C with 5% CO2 throughout. […] Cells were pelleted below the oil, the aqueous supernatant solution, followed by the silicon oil/dibutyl phthalate mixture was aspirated, and the cell pellet underneath resuspended in 200 μl NaOH (0.5 M) and β-radioactivity measured by liquid scintillation counting in a Beckman LS 6500 Multi-Purpose Scintillation Counter (Beckman Coulter). […] Where indicated, the sodium free buffer was prepared using TMACl as described in Baird et al.[35] Data are expressed as molecules radiotracer per cell per minute. […] All other chemicals were obtained from Sigma.

[2] = target: T1, System L transporter SLC7A5; experiment: Flow cytometry kynurenine uptake assay (450 nm fluorescence) in T cells; format: cell-based; settings: for IC50: 37 °C
Source text: For cell surface staining, antibodies conjugated to FITC, PE, APC, Alexafluor 647 (A647), APC-efluor780 (APCe780), and PerCPCy5.5 were obtained from either BD Pharmingen, eBioscience or Biolegend. Fc receptors were blocked using Fc Block (BD Pharmingen). Antibody clones used were: CD4 (RM4-5), CD8a (53-6.7), TCRβ (H57-597), CD44 (IM7), CD45.1 (A20), CD45.2 (104) and CD98 (RC388). Cells were fixed using 1% paraformaldehyde. Standard intracellular cytokine staining protocols were followed for IFNγ (clone XMG1.2; Biolegend) staining. Data were acquired on a LSR Fortessa II with DIVA software or a FACSVerse flow cytometer with FACSuite software (BD Biosciences) and analysed using FlowJo software version 9.9.5 (TreeStar).
Start with at least 1 × 10^6 cells per condition, to obtain at least 200,000 events analysed by flow cytometry at the end of the protocol. […] If required, surface cell antibody staining should be performed prior to uptake assay protocol. This may be performed at room temperature or 4 °C, however test samples must be warmed to 37 °C, e.g. in water bath, prior to kynurenine uptake. (As with all multi-parameter flow cytometry, appropriate antibody staining controls must also be performed.) Samples can be fixed immediately after uptake assay by addition of 4% (vol/vol) paraformaldehyde (PFA; to a final concentration of 1%) for 30 min at room temperature.
For kynurenine uptake assay; pre-warm kynurenine (800 μM, in HBSS), BCH (40 mM, in HBSS) and lysine (20 mM, HBSS) and HBSS to 37 °C. After surface antibody staining of samples, resuspend cells in 200 μl warmed HBSS (1–5 × 10^6 cells in FACS tubes, or scale accordingly into plates). Keep cells in water bath at 37 °C. Add 100 μl of HBSS, or BCH or lysine to appropriate samples. Add 100 μl HBSS to no kynurenine controls (final volume 400 μl). Finally, add 100 μl kynurenine to appropriate samples. Stop uptake after 4 min by adding 125 μl 4% PFA for 30 min at room temperature, in the dark. The final concentrations for uptake assay are: 200 μM kynurenine; +/-10 mM BCH; +/-5 mM lysine. After fixation, wash cells twice in PBS/0.5% BSA and resuspend in PBS/0.5% BSA prior to acquisition on flow cytometer. The 405 nm laser and 450/50 BP filter are used for kynurenine fluorescence detection.
To monitor kynurenine uptake in live cells, acquire data on flow cytometer immediately following addition of kynurenine and plot fluorescence against time.

AHR [3] = experiment: Cyp1a1 mRNA induction in TH17cond CD4+ T cells (qPCR); format: cell-based, mouse
Protocol: To activate primary T cells, spleens and/or lymph nodes (LN) were removed, disaggregated and red blood cells lysed. Cells were stimulated with 1 μg/ml of the CD3 monoclonal antibody (2C11) and 2 μg/ml anti-CD28 (37.51; ebiosciences) to trigger the TCR. Naive CD4^+ T cells and 24 h TCR-activated CD4^+ T cells were purified using CD4 isolation kit (EasySep, STEMCELL Technologies). […] Proleukin, Novartis) for a further 3–5 days. To generate TH1s and TH17s, murine CD8^+ T cells were depleted from lymph node preparations using CD8 depletion kit (EasySep, STEMCELL Technologies). […] RnD Systems) and IL-2 (20 ng/ml) and for TH17s; cytokines IL-6 (50 ng/ml, Peprotech), IL-1β (10 ng/ml, Peprotech) and TGFβ (2 ng/ml, Peprotech). TH17s were cultured in IMDM (Gibco). All other cells were cultured in RPMI 1640 containing L-glutamine (Gibco). Culture media was supplemented with 10% FBS (Gibco), 50 μM β-mercaptoethanol (β-ME, Sigma) and penicillin/streptomycin (Gibco). Cells were incubated at 37 °C with 5% CO2 throughout. […] RNA was purified using the RNeasy RNA purification Mini Kit (Qiagen) (Genomic DNA was digested with RNase-free DNase (Qiagen) following manufacturer instructions) and reverse-transcribed using the iScript cDNA synthesis kit (BioRad). Quantitative PCR was performed in 96-well plate format using iQ SYBR Green-based detection (BioRad) on a BioRad iCycler.

AHR [4] = system: AHR; set-up: method as in PMID 29279331; settings: COS-1 cells; read-out: EC50 for AHR activation; cited from earlier work
[5] = summary over CTL, TH1 and 24 h TCR-stimulated T cells

T1 sequence (Q9Z127 whole entry): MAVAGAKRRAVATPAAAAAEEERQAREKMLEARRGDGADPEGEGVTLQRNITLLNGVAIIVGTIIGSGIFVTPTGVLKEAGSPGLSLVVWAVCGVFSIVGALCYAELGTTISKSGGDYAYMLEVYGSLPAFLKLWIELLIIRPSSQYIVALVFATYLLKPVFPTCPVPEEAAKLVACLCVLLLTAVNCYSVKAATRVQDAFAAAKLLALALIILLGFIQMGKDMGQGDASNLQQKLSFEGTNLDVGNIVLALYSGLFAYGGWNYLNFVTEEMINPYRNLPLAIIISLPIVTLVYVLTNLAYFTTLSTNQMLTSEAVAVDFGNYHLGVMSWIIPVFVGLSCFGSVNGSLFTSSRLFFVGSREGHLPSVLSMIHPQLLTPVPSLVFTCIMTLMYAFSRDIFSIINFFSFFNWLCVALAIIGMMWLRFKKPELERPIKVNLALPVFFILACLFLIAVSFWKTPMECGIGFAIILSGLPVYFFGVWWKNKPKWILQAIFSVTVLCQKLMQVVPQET
T1 sequence (P10852 whole entry partner): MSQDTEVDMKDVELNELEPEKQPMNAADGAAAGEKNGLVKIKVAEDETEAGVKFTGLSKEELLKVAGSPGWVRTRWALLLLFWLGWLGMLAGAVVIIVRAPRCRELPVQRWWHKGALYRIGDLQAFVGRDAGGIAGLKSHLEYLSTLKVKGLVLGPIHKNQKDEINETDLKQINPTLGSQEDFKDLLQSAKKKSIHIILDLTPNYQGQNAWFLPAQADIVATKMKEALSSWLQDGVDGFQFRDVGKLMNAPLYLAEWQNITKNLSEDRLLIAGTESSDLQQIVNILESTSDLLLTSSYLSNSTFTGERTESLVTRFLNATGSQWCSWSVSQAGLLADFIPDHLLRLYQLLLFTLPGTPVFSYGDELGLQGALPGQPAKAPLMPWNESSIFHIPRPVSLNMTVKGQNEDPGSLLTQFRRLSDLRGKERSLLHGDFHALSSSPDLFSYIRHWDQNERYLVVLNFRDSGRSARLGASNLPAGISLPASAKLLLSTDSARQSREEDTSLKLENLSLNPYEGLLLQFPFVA

Nc1ccccc1C(=O)CC(N)C(=O)O (stereo not drawn) [kynurenine]
Km ([1]; CTLs, rounded value in Discussion, read-out: Km of kynurenine transport in CTLs): ~200 µM
Km ([1]; IL-2 maintained CTLs, radiolabelled kynurenine transport assay, read-out: Km for the initial rate of kynurenine transport): 213 µM
sodium dependence of uptake ([1]; TCR-activated CD4+ T cells, TH1s and CTLs, Na+ containing vs Na+-free buffer): sodium independent
temperature dependence of kynurenine-mediated increase in MFI ([2]; CTLs, 4 min, 37 °C vs 4 °C): temperature sensitive
Km ([2]; IL-2 maintained CTLs, flow cytometry assay (MFI), read-out: Km for the initial rate of kynurenine transport): 267 µM
EC50 (AHR [3]; D3 TH17cond CD4+ T cells, 2 h, read-out: EC50 to drive Cyp1A1 mRNA expression): 11.1 µM
Cyp1a1 mRNA induction, D3 versus D5 post activation (AHR [3]; TH17cond CD4+ T cells, kynurenine 100 μM or FICZ 300 nM, 2 h): strikingly higher on day 3 post activation compared to day 5 cells
EC50 (AHR [4]): 13 µM

NC1(C(=O)O)CC2CCC1C2 (stereo not drawn) [BCH, 2-amino-2-norbornanecarboxylic acid]
Percentage of kynurenine uptake blocked by BCH, 3H-Kyn ([1]; 24 h CD3/CD28 stimulated T cells (TCR), 4 min uptake): 79.1 ± 11.3%
Percentage of kynurenine uptake blocked by BCH, 3H-Kyn ([1]; CTL, 4 min uptake): 92.5 ± 0.9%
Percentage of kynurenine uptake blocked by BCH, 3H-Kyn ([1]; TH1, 4 min uptake): 90.2 ± 2.1%
effect on 3H-kynurenine transport ([1]; TH1 cells and CTLs, BCH 5 mM): inhibited
radiolabelled kynurenine uptake blocked [1, 5]: 80–90%
Percentage of kynurenine uptake blocked by BCH, Kyn MFI ([2]; 24 h CD3/CD28 stimulated T cells (TCR), 450 nm fluorescence emission): 77.1 ± 14.7%
effect on kynurenine uptake ([2]; CD3/CD28 activated wild-type T cells in co-culture, 5 mM lysine, BCH): BCH treatment did
IC50 ([2]; CTL, 4 min): 492 ± 45 µM
Percentage of kynurenine uptake blocked by BCH, Kyn MFI ([2]; CTL, 450 nm fluorescence emission): 78.3 ± 4.5%
IC50 ([2]; D7 rLM CD8+ effector T cells from spleen, ex vivo, 4 min): 161 ± 34 µM
effect on kynurenine transport ex vivo ([2]; D7 rLM-infected CD8+ T cells, BCH 10 mM, Leu 5 mM, Lys 5 mM): blocked
effect on kynurenine transport (450 nm fluorescence) ([2]; TCR-stimulated CD8+ T cells or CTLs, 4 min, BCH 10 mM, Leu 5 mM, Lys 5 mM): prevented
Percentage of kynurenine uptake blocked by BCH, Kyn MFI ([2]; TH1, 450 nm fluorescence emission): 81.0 ± 9.0%
kynurenine transport blocked as measured by flow cytometry [2, 5]: 80%
effect on FICZ-induced Cyp1a1 mRNA (AHR [3]; D3 TH17cond CD4+ T cells, FICZ 300 nM 2 h, BCH 25 mM): does not block FICZ mediated Cyp1a1 mRNA induction
effect on kynurenine-induced Cyp1a1 mRNA (AHR [3]; D3 TH17cond CD4+ T cells, kynurenine 100 μM 2 h, BCH 25 mM): impedes Cyp1a1 mRNA induction in response to kynurenine
